Measurements from US11352368B2, “Salt of fused ring pyrimidine compound, crystal form thereof and preparation method therefor and use thereof” (GUANGZHOU MAXINOVEL PHARMACEUTICALS CO., LTD., priority 2018, dated 2022).

Key:
[1] = Stability test (total impurities, 20 days); format: physicochemical
Description: The crystal form A of the fumarate of fused ring pyrimidine compound as shown in formula 2, the crystal form B of the adipate of fused ring pyrimidine compound as shown in formula 3 and the fused ring pyrimidine compound as shown in formula 1 were subjected to tests at a high temperature of 60° C., 25° C./60% RH, 40° C./75% RH and highlight irradiation (4500 lx±500 lx), the test time was 20 days, the sample bottles were placed under different test conditions, and samples were taken at 0 and 20 days to detect the total amount of impurities, and the test results were shown in Table 8 below.

FGFR = settings: cited from earlier work
[2] = Solubility test of crystal form A and crystal form B in a medium (Example 12); format: physicochemical; settings: for Solubility (calculated by free base of the fused ring pyrimidine compound): in mg/mL (unit assumed)
Description: Example 12 Solubility Test of the Crystal Form A of the Fumarate of Fused Ring Pyrimidine Compound as Shown in Formula 2 and the Crystal Form B of the Adipate of Fused Ring Pyrimidine Compound as Shown in Formula 3 in a Medium

[3] = Pharmacokinetic experiment, single intragastric dose in rats; format: in vivo, SD rats; settings: single dose 10 mg/kg, 0.5% MC and 0.5% Tween80 in water
Description: 1) Preparation of animals 9 healthy male SD rats, each with a body weight of 220-230 g, were taken, fed with standard formulated granulated feed for rats at fixed times every day, and fasted for 12 hours before the experiment, and feeding was resumed after 4 hours of administration. Rats were free to drink water before, after and during the experiment. 9 rats were randomly divided into 3 groups.
2) Formulation of drugs: The fused ring pyrimidine compound as shown in formula 1, the crystal form A of the fumarate of fused ring pyrimidine compound as shown in formula 2 and the crystal form B of the adipate of fused ring pyrimidine compound as shown in formula 3 were accurately weighed, and were formulated into a 1 mg/mL solution in water (Wahaha/111830) with 0.5% MC (Fluka/BCBK3534K) and 0.5% Tween80 (TCl/V4FSC), respectively.
3) Intragastric administration with single dose (10 mg/kg): in the first group, rats were intragastrically administered with a solution of the fused ring pyrimidine compound as shown in formula 1, in the second group, rats were intragastrically administered with a solution of the crystal form A of the fumarate of fused ring pyrimidine compound as shown in formula 2, and in the third group, rats were intragastrically administered with a solution of the crystal form B of the adipate of fused ring pyrimidine compound as shown in formula 3.
4) Collection of blood samples: About 150 μL of blood was taken from the fundus venous plexus before administration and 0.083, 0.25, 0.5, 1, 2, 4, 8 and 24 hours after administration from each rat in the three groups, and anticoagulated with K2EDTA, plasma was separated by centrifugation and the supernatant was collected for LC-MS analysis.

FLT3 = target: T1, FLT3 (Homo sapiens, UniProt P36888); settings: cited from earlier work
T1 sequence (P36888 27-993): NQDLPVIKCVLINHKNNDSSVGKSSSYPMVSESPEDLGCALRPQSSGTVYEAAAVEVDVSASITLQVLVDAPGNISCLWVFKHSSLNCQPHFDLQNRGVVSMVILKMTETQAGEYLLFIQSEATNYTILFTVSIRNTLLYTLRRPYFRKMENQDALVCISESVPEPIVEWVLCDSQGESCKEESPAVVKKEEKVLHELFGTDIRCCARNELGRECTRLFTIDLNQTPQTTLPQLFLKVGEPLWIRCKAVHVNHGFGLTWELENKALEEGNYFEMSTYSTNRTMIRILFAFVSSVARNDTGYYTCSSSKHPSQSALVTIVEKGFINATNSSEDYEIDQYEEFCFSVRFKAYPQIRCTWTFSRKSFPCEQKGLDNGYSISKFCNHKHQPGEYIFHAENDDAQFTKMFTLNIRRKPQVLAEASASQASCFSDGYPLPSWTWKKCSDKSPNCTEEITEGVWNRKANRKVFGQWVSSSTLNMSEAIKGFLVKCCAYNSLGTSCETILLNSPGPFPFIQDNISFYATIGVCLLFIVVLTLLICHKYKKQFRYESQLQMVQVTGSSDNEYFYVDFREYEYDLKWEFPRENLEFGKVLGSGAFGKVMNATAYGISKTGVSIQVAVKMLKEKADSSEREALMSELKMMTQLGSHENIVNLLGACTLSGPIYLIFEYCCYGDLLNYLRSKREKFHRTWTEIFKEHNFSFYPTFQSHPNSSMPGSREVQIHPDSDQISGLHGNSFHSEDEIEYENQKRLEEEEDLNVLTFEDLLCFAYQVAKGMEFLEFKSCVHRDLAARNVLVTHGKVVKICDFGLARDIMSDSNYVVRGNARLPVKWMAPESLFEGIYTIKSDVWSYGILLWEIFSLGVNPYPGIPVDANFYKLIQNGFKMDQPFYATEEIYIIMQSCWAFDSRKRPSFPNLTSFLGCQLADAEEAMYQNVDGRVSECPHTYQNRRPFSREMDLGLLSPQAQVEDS

[4] = Solubility test of the salts in pure water (Example 6); format: physicochemical; settings: room temperature, balancing about 20 hours, HPLC
Description: 2.0 mg of sample was precisely weighed into a liquid phase vial, 1.0 mL of purified water was added, the vial was subjected to ultrasonic treatment for about 30 seconds to disperse the samples evenly, then the vial was placed on a Labquaker rotator, and slowly rotated at room temperature for balancing. After balancing for about 20 hours, each vial was removed, and the solution was filtered with 0.45 μm nylon filter membrane. The filtrate was diluted by DMSO or not diluted and then detected by HPLC. At the same time, two parts of fused ring pyrimidine compounds were weighed and dissolved in DMSO to make standard solutions with concentration of 250 μg/mL and 500 μg/mL, respectively. The standard solutions were subjected to the HPLC detection. The sample concentration vs the peak area of HPLC principal component was used for make a standard curve, and the solubility of each sample in pure water was calculated by a external standard method.

JAK = settings: cited from earlier work
Src kinase = settings: cited from earlier work
[5] = medium intestinal fluid in simulated fed state (FeSSIF)
[6] = medium pH 4 (50 mM phosphate buffer)
[7] = medium pH 6 (50 mM phosphate buffer)

**Q.** For `COc1cc(F)ccc1-c1c(C)sc2cnc(Nc3cnn(C4CCNCC4)c3)nc12` [The fused ring pyrimidine compound as shown in formula 1] [N-[7-(4-fluoro-2-methoxyphenyl)-6-methylthieno[3,2-d]pyrimidin-2-yl]-1-(piperidin-4-yl)-1H-pyrazol-4-amine], which Impurity content ([1]; Day 0) is on record?
**A.** Its Impurity content is 1.44%.

**Q.** What about the Impurity content ([1]; Day 20, 25° C/60% RH) of the same compound?
**A.** Its Impurity content is 1.46%.

**Q.** And the Impurity content ([1]; Day 20, 40° C/75% RH)?
**A.** Its Impurity content is 1.49%.

**Q.** And the Impurity content ([1]; Day 20, 60° C)?
**A.** The Impurity content was 1.44%.

**Q.** And the Impurity content ([1]; Day 20, Light (4500 lx±500 lx))?
**A.** The Impurity content was 2.06%.

**Q.** What about the “chemical stability in the condition of high temperature and high humidity” value ([1]; high temperature and high humidity, 20 days) of the same compound?
**A.** The value was “good chemical stability”.

**Q.** What about the “inhibitory effect on FGFR” value (FGFR) of the same compound?
**A.** The value was “good inhibitory effect”.

**Q.** And the “pH value of sample solution for solubility” value (“pH value of sample solution” for short) ([2]; medium Purified water)?
**A.** Its value is 8.29.

**Q.** What about the “Solubility (calculated by free base of the fused ring pyrimidine compound)” value ([2]; medium Purified water) of the same compound?
**A.** The value was under 0.001.

**Q.** And the “pH value of sample solution” value [2, 5]?
**A.** Its value is 5.27.

**Q.** And the “Solubility (calculated by free base of the fused ring pyrimidine compound)” value [2, 5]?
**A.** Its value is 1.469.

**Q.** And the “pH value of sample solution” value [2, 6]?
**A.** Its value is 5.67.

**Q.** And the “Solubility (calculated by free base of the fused ring pyrimidine compound)” value [2, 6]?
**A.** Its value is 0.054.

**Q.** What about the “pH value of sample solution” value [2, 7] of the same compound?
**A.** Its value is 6.29.

**Q.** And the “Solubility (calculated by free base of the fused ring pyrimidine compound)” value [2, 7]?
**A.** Its value is 0.025.

**Q.** What about the “Blood drug concentration (AUC)” value [3] of the same compound?
**A.** The value was 57.7 ng·h/mL.

**Q.** And the “inhibitory effect on FLT3” value (FLT3)?
**A.** Its value is “good inhibitory effect”.

**Q.** And the saturated solubility [4]?
**A.** Its saturated solubility is under 1 µg/mL.

**Q.** What about the “inhibitory effect on JAK” value (JAK) of the same compound?
**A.** Its value is “good inhibitory effect”.

**Q.** What about the “inhibitory effect on Src kinase” value (Src kinase) of the same compound?
**A.** Its value is “good inhibitory effect”.
